Test results: patent US9795570B2, “Modulation of macrophage phenotype by emodin” (University of South Carolina, priority 2016, dated 2017)

Experiments:
[1] = tested on: peritoneal macrophages and 4T1 cells; assay: Tumor cell-macrophage adhesion; format: cell-based, mouse
Procedure: Tumor cell monolayers (80-90% confluent) and macrophages were treated with emodin (0-25 μM) overnight. The cells were then washed multiple times with PBS, and fresh SF DMEM was added. Macrophages were resuspended with scraping and 5×10^5 cells were seeded onto the tumor cell monolayers. After 1 h the non-adherent cells were washed away, and the adherent cells were resuspened with Trypsin and mild scraping. The total number of cells was counted, and cells were stained with anti-F4/80 FITC (Biolegend). The cells were analyzed on a Beckman Coulter FC500.

[2] = tested on: 4T1 cells; assay: Macrophage migration toward conditioned medium of emodin-treated tumor cells; format: cell-based, mouse; conditions: increasing concentrations of emodin, 24 h treatment
Procedure: EO771 or 4T1 cells were treated with 0-50 μM emodin for 24 h. The cells were then washed multiple times with PBS, further cultured, and TCM was collected. The TCM was placed in the bottom chamber of transwell inserts, and 2×10^5 macrophages were seeded into the top chamber in SF DMEM. The cells were incubated at 37° C. with 5% CO2 for 4 h. The membranes were then fixed with 4% paraformaldehyde for 10 min. The cells were removed from the top chamber using cotton swabs, and the cells on the bottom chamber were stained with DAPI (1 μg/mL). The inserts were then cut out, mounted onto slides, and imaged under a Nikon Eclipse E-600 fluorescence microscope (Nikon Inc. Melville, N.Y.) at 20× magnification (5 fields/insert). DAPI stained cells were quantified using ImagePro Plus software.

[3] = tested on: 4T1 tumors; assay: Survival after surgical removal of primary 4T1 tumors; format: in vivo, BALB/c mice; conditions: 10 mice
Procedure: A cohort of 30 8-week-old, female BALB/c mice were injected with 2×10^5 4T1 cells suspended in 20 μL PBS in each of their fourth mammary fat pads. The mice were randomly divided into three groups with 10 mice in each group. On day 10, tumors had reached a volume of 100-200 mm^3, and were surgically removed. […] Post-surgical treatment began on day 11. This treatment involved each of the three groups receiving 800 μL daily IP injections of one of the following mixtures: PBS with 2% DMSO by volume (Control group), PBS with 1% DMSO by volume and 1% by volume of 50 mg/mL emodin in DMSO, or PBS with 2% by volume of 50 mg/mL emodin in DMSO. […] Daily IP emodin injections were administered until day 24; from day 25 to day 41, emodin was administered every other day. During the 41 days after the tumor removal, 3 mice in the control group died, while 2 mice and 1 mouse died in low emodin group and high emodin group, respectively (FIG. 16).

[4] = tested on: EO771 tumors; assay: EO771 breast tumor model in C57BL/6 mice; format: in vivo
Procedure: C57BL/6 and BALB/c mice (8-12 weeks, female) were purchased from Jackson Labs (Bar Harbor, Me.). They were housed at the University of South Carolina Animal Research Facility, and all procedures were approved by the Institutional Animal Care and Use Committee. EO771 or 4T1 cells (2×10^5) in 20 μL of PBS were injected into the 4th pair of mammary glands on C57BL/6 mice or BALB/C, respectively, on Day 0. Starting on Day 1, emodin (40 mg/kg) or vehicle (2% DMSO) was injected intraperitoneally in 1 ml PBS once daily. The tumor size was measured using a caliper every 2-4 days, and the tumor volume was calculated using a formula: V (mm^3)=L (major axis)×W^2 (minor axis)/2. Mice were sacrificed at various time points.
At sacrifice, tumors were embedded in OCT. They were then cut into 8 μm thick frozen sections and placed on slides. For immunohistochemistry staining, the sections were fixed with 4% paraformaldehyde for 10 min, and then blocked with 0.01 M glycine containing 0.1% Triton x-100. Next, the sections were blocked with 5% BSA. They were then incubated in primary antibody overnight at 4° C.: anti-F4/80 (1:50, Biolegend), anti-pSTAT6 (1:50, Cell Signaling), or anti-C/EBPβ (1:50, Santa Cruz). The sections were washed with PBS and then incubated with secondary antibodies for 1 h at room temperature. The sections were then stained with DAPI (1 μg/mL) and coverslipped with DABCO. Slides were imaged using a Zeiss LSM 510 Confocal microscope (Zeiss, Peabody, Mass.). For quantitative analysis, the number of positive cells was manually counted in six random fields of view per section. CD31 staining was performed according to standard methodology. Slides were imaged on a Nikon ECLIPSE E600 microscope (Nikon, Melville, N.Y.) at 200× magnification (10 fields per section). The integrated optical density (IOD) of CD31 was quantified using Image-Pro Plus software.
Macrophages or T cells were isolated from 4T1 tumors from mice sacrificed at 6 weeks post implantation or from EO771 tumors 5 weeks post implantation, using EasySep™ Mouse PE Positive Selection Kit (Stem Cell Technologies, Vancouver, BC). For cell isolation, 1×10^7-1×10^8 cells were incubated with 20 μL PE conjugated anti-F4/80 (Biolegend) for macrophages or 20 μL PE conjugated anti-CD3 for T cells and 50 μL microbeads. The T cells and macrophages were lysed in Qiazol and used for RT-PCR analysis. For ChIP assays, 5-10×10^6 macrophages were fixed in 1% formaldehyde.

[5] = tested on: mouse peritoneal macrophages; assay: Phagocytosis assay (FITC-labeled E. coli bioparticles); format: cell-based
Procedure: Macrophages were seeded into a 96-well plate (2×10^5 cells/well) and were stimulated with IL4 or LPS+IFNγ for 24 h with or without emodin. Phagocytotic activity was measured using a Vybrant Phagocytosis assay kit (Molecular Probes). The medium was removed and the cells were washed with PBS. The fluorescent BioParticle suspension was added to the cells and incubated up to 6 h. After the indicated time, the BioParticle suspension was removed, any extracellular fluorescence was quenched with trypan blue, and the intracellular fluorescence was detected using a Spectramax M5 microplate reader (Molecular Devices, Sunnyvale, Calif.).

[6] = 40 mg/kg IP once daily from Day 1

SMILES: Cc1cc(O)c2c(c1)C(=O)c1cc(O)cc(O)c1C2=O [emodin]
- adhesion of macrophages to a monolayer of tumor cells ([1]; emodin treatment of both macrophages and tumor cells): decreased the adhesion even further
- adhesion of macrophages to a monolayer of tumor cells ([1]; emodin treatment of either macrophages or tumor cells): significantly inhibited
- macrophage migration toward TCM from emodin-treated tumor cells [2]: decrease in macrophage migration
- mice that died during the 41 days after tumor removal ([3]; high emodin dose group, approximately 40 mg/kg IP): 1 mouse
- mice that died during the 41 days after tumor removal ([3]; low emodin dose group, approximately 20 mg/kg IP): 2 mice
- primary tumor growth [4, 6]: significant inhibition
- tumor weight at the endpoint [4, 6]: significant inhibition
- M1 marker (iNOS) expression in TAMs ([4]; F4/80+ cells from tumors, qPCR): significantly higher
- M2 marker (Arg1 and CD206) expression in TAMs ([4]; F4/80+ cells from tumors, qPCR): significantly lower
- reduction of the number of tumor infiltrating macrophages (F4/80) ([4]; experimental endpoint, 40 mg/kg IP): 70%
- CD31 staining in tumors, relative to control ([4]; microvessel density, 5 weeks post injection): ~50%
- expression of inflammatory cytokines IL1β and TNFα in TAMs ([4]; qPCR, without statistical significance): higher expression levels
- inhibition of bioparticle uptake ([5]; IL4 or LPS/IFNγ stimulated macrophages, emodin 50 μM 24 h): ~2 fold
- phagocytic activity of naïve cells ([5]; emodin alone, 6 h time point): increase phagocytic activity
